Reference: US4018925A, “Method of arresting bacterial growth with certain selected dichloro-2,2,5,5-tetrasubstituted-3-6-piperazinediones” (Interx Research Corporation, priority 1975, dated 1977)
Each block holds one compound with its values, some of them ahead of it.

Experiments:
Kleb. pneumoniae = assay: Antibacterial activity: time required for complete sterilization (modified serial dilution method); assay type: cell-based, Kleb. pneumoniae ATCC 10031
From the text: (§1) The procedure to determine the antibacterial activity of 1,4-dichloro-2,2,5,5-tetramethyl-3,6-piperazinedione was based primarily on a modification of the serial dilution method of analysis. However, instead of determining the minimum inhibitory concentration parameters for the compound investigated, applicants alternatively chose to determine the bactericidal endpoint for a given concentration of the compound investigated. Consequently, applicants studies were established to determine the time required for complete sterilization of the micro-organism tested, when exposed to a given concentration of the compound investigated.
(§2) Nutrient Broth B.B.L. -- 8g/1000 ml. distilled water. The broth contains 5g. gelysate peptone and 3g. beef extract. The solution has a pH of 6.9.
(§3) Nutrient Agar -- 23g/1000 ml. distilled water. The nutrient contains 5g. gelysate peptone, 3g. beef extract and 15g. agar.
(§4) Horse Serum T.C. -- 10% horse serum solution in distilled water. The serum solution was freshly prepared and adjusted to a pH of 7 using carbon dioxide prior to its use.
(§5) A stock solution of the isolated compound (1,4,dichloro-2,2,5,5-tetramethyl-3,6-piperazinedione) was prepared using an appropriate buffered solution.
(§6) For screening in the absence of a denaturing agent (e.g., horse serum) an equal volume of distilled water and the resulting solution was subjected to the screen.
(§7) For screening in the presence of a denaturing agent, a volume of the stock solution was diluted using an equal volume of 10% horse serum. When necessary, the final solution was adjusted to the desired pH using 1N HCL and the solution was permitted to stand at room temperature for thirty minutes prior to the screening procedure.
(§8) To 5 ml. of the stock solution being evaluated, there was added 0.2 ml. of an overnight broth culture containing the particular micro-organism being investigated (see above). At time intervals of 0.5, 1, 2, 3, 4, 5, . . . minutes, a loop of this suspension was subcultured into 5 ml. of a sterile nutrient broth. All the samples were then incubated at 37° C for seven days with daily observation for evidence of bacterial growth. The time interval reported is for that sample in which no bacterial growth was observed after the incubation period.
(§9) To 5 ml. of a sterile 0.9% sodium chloride solution, there was added 0.2 ml. of an overnight broth culture containing the particular micro-organismbeing investigated. A loop of this suspension was subcultured into 5 ml. of a sterile nutrient broth and incubated at 37° C for seven days.
(§10) To 5 ml of a sterile nutrient broth, there was added a loop of the 1,4-dichloro-2,2,5,5-tetramethyl-3,6-piperazinedione solution and the solution was mixed immediately. To this solution, there was then added a loop of an overnight broth culture which was diluted 25x with a 0.9% sodium chloride solution. Incubation was carried out for seven days at a temperature of 37° C.
(§11) At the same time intervals used for subculturing the test solution into nutrient broth during the screening procedure, a loop of the test solution was also subcultured onto sterile nutrient agar plates. This technique was useful for observing the characteristic colonial morphology of each organism.
(§12) The entire screening procedure was conducted for each buffered solution using the buffered solution rather than the 1,4-dichloro-2,2,5,5-tetramethyl-3,6-piperazinedione solution in the procedure.

Staph. epidermidis = assay: as above; assay type: cell-based, Staph. epidermidis ATCC 12228
From the text: as §1, §2, §3, §4, §5, §6, §7, §8, §9, §10, §11, §12

[1] = Stability of N-chloramines in aqueous solution (half-life, iodometric and/or spectrophotometric); assay type: physicochemical; conditions: for half-life: temperature 40
Description: The stability of the compound, 1,4-dichloro-2,2,5,5-tetramethyl-3,6-piperazinedione in aqueous solution was determined by (1) following the disappearance of the positive chlorine concentration of the N-Chloramine solution iodometrically and/or (2) following the decrease in the absorbance at the maximum wavelength spectrophotometrically.
The data obtained was interpreted in terms of a first order kinetic process and the half-life of said compound was reported in units of time at the condition under which they were determined.

E. coli = assay: Antibacterial activity: time required for complete sterilization (modified serial dilution method); assay type: cell-based, E. coli ATCC 10536
From the text: as §1, §2, §3, §4, §5, §6, §7, §8, §9, §10, §11, §12

Bord. bronchiseptica = assay: as above; assay type: cell-based, Bord. bronchiseptica ATCC 4617
From the text: as §1, §2, §3, §4, §5, §6, §7, §8, §9, §10, §11, §12

Pseud. aeruginosa = assay: as above; assay type: cell-based, Pseud. aeruginosa ATCC 9027
From the text: as §1, §2, §3, §4, §5, §6, §7, §8, §9, §10, §11, §12

Staph. aureus = assay: as above; assay type: cell-based, Staph. aureus ATCC 6538
From the text: as §1, §2, §3, §4, §5, §6, §7, §8, §9, §10, §11, §12

[2] = 0.1M Na2B4O7 pH8.8, diluent H2O, 0.62 × 10^-3 M (146PPM), positive Cl 43 PPM
[3] = 0.1M NaH2PO4, diluent H2O, 0.52 × 10^-3 M, positive Cl 36 PPM
[4] = 0.1M NaH2PO4 pH7.0, diluent serum (10% horse serum), 0.52 × 10^-3 M (126PPM), positive Cl 36 PPM
[5] = 0.1M NaOAc pH 4.6, diluent H2O, 0.59 × 10^-3 M (139 PPM), positive Cl 41 PPM
[6] = 0.1M NaOAc pH 4.6, diluent serum (10% horse serum), 0.59 × 10^-3 M (139 PPM), positive Cl 41 PPM

Compound: CC1(C)C(=O)N(Cl)C(C)(C)C(=O)N1Cl [1,4-dichloro-2,2,5,5-tetramethyl-3,6-piperazinedione]
- Antibacterial activity time, 10031 (Kleb. pneumoniae; [2]): 4 min
- Antibacterial activity time, 10031 (Kleb. pneumoniae; [3]): 4 min
- Antibacterial activity time, 10031 (Kleb. pneumoniae; [4]): > 15 min
- Antibacterial activity time, 10031 (Kleb. pneumoniae; [5]): 2 min
- Antibacterial activity time, 10031 (Kleb. pneumoniae; [6]): > 10 min
- Antibacterial activity time, 12228 (Staph. epidermidis; [2]): 2 min
- Antibacterial activity time, 12228 (Staph. epidermidis; [3]): 2 min
- Antibacterial activity time, 12228 (Staph. epidermidis; [4]): > 15 min
- Antibacterial activity time, 12228 (Staph. epidermidis; [5]): 2 min
- Antibacterial activity time, 12228 (Staph. epidermidis; [6]): > 15 min
- half-life ([1]; 0.1M Na2B4O7 pH 9.3): 38 h
- half-life ([1]; 0.1M NaH2PO4 pH 7.0): 332 h
- half-life ([1]; 0.1M NaOAc pH 4.6): 3070 h
- Stability (half-life) compared with 1,4-dichloro-2,5-piperazinedione ([1]; same pH (4.6, 7.0 and 9.3)): far greater stability (half-life)
- Antibacterial activity time, 10536 (E. coli; [2]): 1 min
- Antibacterial activity time, 10536 (E. coli; [3]): 1 min
- Antibacterial activity time, 10536 (E. coli; [4]): > 15 min
- Antibacterial activity time, 10536 (E. coli; [5]): 1 min
- Antibacterial activity time, 10536 (E. coli; [6]): > 10 min
- Antibacterial activity time, 4617 (Bord. bronchiseptica; [2]): 4 min
- Antibacterial activity time, 4617 (Bord. bronchiseptica; [3]): 3 min
- Antibacterial activity time, 4617 (Bord. bronchiseptica; [4]): > 15 min
- Antibacterial activity time, 4617 (Bord. bronchiseptica; [5]): 1 min
- Antibacterial activity time, 4617 (Bord. bronchiseptica; [6]): > 10 min
- Antibacterial activity time, 9027 (Pseud. aeruginosa; [2]): 4 min
- Antibacterial activity time, 9027 (Pseud. aeruginosa; [3]): 5 min
- Antibacterial activity time, 9027 (Pseud. aeruginosa; [4]): > 15 min
- Antibacterial activity time, 9027 (Pseud. aeruginosa; [5]): 3 min
- Antibacterial activity time, 9027 (Pseud. aeruginosa; [6]): > 10 min
- Antibacterial activity time, 6538 (Staph. aureus; [2]): 4 min
- Antibacterial activity time, 6538 (Staph. aureus; [3]): 4 min
- Antibacterial activity time, 6538 (Staph. aureus; [4]): > 15 min
- Antibacterial activity time, 6538 (Staph. aureus; [5]): 3 min
- Antibacterial activity time, 6538 (Staph. aureus; [6]): > 15 min

- half-life ([1]; 0.1M Na2B4O7 pH 9.3): 0.717 h
- half-life ([1]; 0.1M NaH2PO4 pH 7.0): 0.883 h
- half-life ([1]; 0.1M NaOAc pH 4.6): 15.5 h
Compound: O=C1CN(Cl)C(=O)CN1Cl [1,4-dichloro-2,5-piperazinedione, reference compound]
